Data set [1] can be described thus: Net charge measurement of thermal condensation aerosol (aerosol electrometer, Staccato single dose). The data set is classed as physicochemical. As to conditions: for Total net charge of aerosol particles (in words): standard housing.
The nature of data set [2]: Airway deposition and aerosol charges of normal, metallized and Permastat Plus airways (Example 40). The conditions noted are these: 28.3 LPM. The data set is classed as physicochemical. The source says: Purpose • To compare aerosol charge and airway deposition of various airways: normal airway, Metallizedairway(SS*/Cu/Cu/SS), and Permastat Plus airway.
Data set [3] can be described thus: Aerosol charge testing with heat packages, screening foils and funnels (Examples 2-3, 12). The conditions noted are these: for Aerosol charge relative to Alprazolam: Example 2, aerosol electrometer.
The nature of data set [4]: Total net charge vs. airway housing deposition, standard vs anti-static polycarbonate housing. The conditions noted are these: for Net Charge: mean ± SD, N-4.
Description: Alprazolam device versions were tested in this part of the study. The first version (used in Part 1) used an airway housing made of polycarbonate with a surface resistivity of—1×10 18 0/sq. The second version used an airway housing made of a lower resistivity polycarbonate (−1×1011 0/sq) to provide charge dissipation.
A short description of data set [5]: Airway deposition and aerosol charges for Permastat, Permastat Plus and standard airway material (Example 38). The conditions noted are these: 1 mg, 28.3 LPM, mean of 4 devices.
Excerpt: Purpose: • To find out the aerosol charge generated from Permastat and Permastat Plus airways and to compare that to normal airway (control)
Materials/Equipment • Standard airway material: makrolon polycarbonate • Permastat: surface resistivity ˜1E11 ohm/sq • Permastat Plus: surface resistivity ˜1E9 ohm/sq • Drug: alprazolam
[6] abbreviates: no applied potential to airway housing, mean ± SD.

Experimental findings from patent publication US11511054B2, “Use of antistatic materials in the airway for thermal aerosol condensation process” (Alexza Pharmaceuticals, Inc., priority 2015, dated 2022) are described below.

For `Cc1nnc2n1-c1ccc(Cl)cc1C(c1ccccc1)=NC2` [Alprazolam], the “Net Charge” value in data set [1] (setting [6]) is reported as −252 ± 59 pC/mg; in data set [4] (anti-static polycarbonate airway housing), −2.2 ± 1; in data set [4] (standard polycarbonate airway housing), −279 ± 45. The results for the “Total net charge of aerosol particles (in words)” value (from here on “Total net charge … (in words)”) in data set [1], in data set [1] (listed as ALP) and in data set [1] (listed as alprazolam) were “relatively large net negative charge”, “net negatively charged” and “substantial”, respectively. Besides, the “Ave Aerosol Charge” value in data set [2] (Metallized airway, ESD gun 16 kV+) is on record as −111.63 pC; in data set [2] (Metallized airway, no ESD gun), −181.57 pC; in data set [2] (Normal airway, ESD gun 16 kV+), −220.405 pC; in data set [2] (Normal airway, no ESD gun) it was −220.645 pC; in data set [2] (Permastat Plus airway, ESD gun 16 kV+), −21.895 pC; in data set [2] (Permastat Plus airway, no ESD gun), −16.57 pC. The “Aerosol charge (in words)” value was “small and negative” in data set [3] (Staccato heat packages with Staticide); “large and negative” in data set [3] (Staccato heat packages without Staticide). Moreover, in data set [3] (partially Staticide-coated airway), the Aerosol charge polarity entry is listed as “positive polarity”. Besides, in data set [4] (anti-static vs standard housing), the “Total net charge, anti-static housing relative to standard housing (fold less)” value is reported as 100 fold. Further, the Mean charge/mass in data set [5] (Permastat Plus airway) was −2.2 pC/mg; in data set [5] (Permastat airway), −46.2 pC/mg; in data set [5] (control (normal) airway), −279.2 pC/mg.

On to `CCCCNc1cc(C(=O)O)cc(S(N)(=O)=O)c1Oc1ccccc1` [Bumetanide], for which, in data set [3], the “Aerosol charge relative to Alprazolam” value is “about one order of magnitude lower”.

As for `CN1C(=O)CC(=O)N(c2ccccc2)c2cc(Cl)ccc21` [Clobazam], the “Net Charge” value in data set [1] (setting [6]) amounted to 0 ± 0 pC/mg.

`CN1C(=O)CN=C(c2ccccc2)c2cc(Cl)ccc21` [Diazepam]: the “Net Charge” value in data set [1] (setting [6]) was −1 ± 1 pC/mg.

`Clc1ccc2c(c1)C(c1ccccc1)=NCc1nncn1-2` [Estazolam]: the “Net Charge” value in data set [1] (setting [6]) is −202 ± 3 pC/mg. Further, in data set [1], the “Total net charge … (in words)” value is listed as “substantial”.

As for `CN1CCN(CCCN2c3ccccc3Sc3ccc(Cl)cc32)CC1` [Prochlorperazine], in data set [1] (setting [6]), the “Net Charge” value is on record as 27 ± 3 pC/mg. Moreover, the “Aerosol charge relative to Alprazolam” value in data set [3] is “about one order of magnitude lower”.

Turning to `Cc1nnc2n1-c1ccc(Cl)cc1C(c1ccccc1Cl)=NC2` [Triazolam], the “Net Charge” value in data set [1] (setting [6]) is reported as −158 ± 13 pC/mg. Besides, the “Total net charge … (in words)” value in data set [1] is given as “substantial”.

For `CCN(C(C)=O)c1cccc(-c2ccnc3c(C#N)cnn23)c1` [Zaleplon], the Net Charge in data set [1] (+16 kV applied to airway housing) is −15 ± 6 pC/mg; in data set [1] (setting [6]), 7 ± 1 pC/mg; in data set [1] (−16 kV applied to airway housing) it was 2 ± 8 pC/mg. Moreover, the “Degree of aerosol charge (in words)” value in data set [3] (Example 3) was “low degree of charge”.
